Among the data in patent US11492335B2, “Aryl or heteroaryl triazolone derivatives or salts thereof, or pharmaceutical compositions comprising the same” (YUHAN CORPORATION, priority 2018, dated 2022) are IC50 values, retold here.

What all share (type): biochemical
Assay [1] has as its target T1, recombinant human MAO-A (monoamine oxidase-A) (Homo sapiens, UniProt P21397).
T1 construct: purchased Sigma-Aldrich
T1 sequence (P21397 1-527): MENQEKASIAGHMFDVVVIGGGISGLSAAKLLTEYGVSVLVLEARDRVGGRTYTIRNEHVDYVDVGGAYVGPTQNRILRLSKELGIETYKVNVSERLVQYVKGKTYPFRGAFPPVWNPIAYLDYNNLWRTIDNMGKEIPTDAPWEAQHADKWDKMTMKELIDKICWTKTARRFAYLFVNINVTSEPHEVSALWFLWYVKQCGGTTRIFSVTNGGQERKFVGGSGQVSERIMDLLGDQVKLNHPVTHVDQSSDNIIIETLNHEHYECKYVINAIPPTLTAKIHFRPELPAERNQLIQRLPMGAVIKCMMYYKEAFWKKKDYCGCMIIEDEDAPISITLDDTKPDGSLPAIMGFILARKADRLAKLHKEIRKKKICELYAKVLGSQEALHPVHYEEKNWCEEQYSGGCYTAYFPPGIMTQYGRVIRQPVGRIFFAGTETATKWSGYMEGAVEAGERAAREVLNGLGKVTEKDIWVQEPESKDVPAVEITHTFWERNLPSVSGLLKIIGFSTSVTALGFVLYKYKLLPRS
The assay is described as follows: Activity on recombinant human MAO-A, Amplex Red method, 0.5 mM tyramine substrate. The following applies: read-out: Inhibitory Activity (IC50, nM) MAO-A. The essentials:
(§1)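 8-point, 1:3 dose-response, four-parameter logistic IC50 from reduction in fluorescence rate versus DMSO control. HRP/Amplex Red detection of H2O2 (ex 544, em 590 nm) after 30 min, 37 °C compound–enzyme preincubation in pH 7.4 phosphate buffer. MAO-A substrate: 0.5 mM tyramine; MAO-B: 1 mM benzylamine.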

Assay [2] concerns the target T2, recombinant human DAO (diamine oxidase) (Homo sapiens, UniProt P19801).
T2 construct: purchased R&D systems
T2 sequence (P19801 20-751): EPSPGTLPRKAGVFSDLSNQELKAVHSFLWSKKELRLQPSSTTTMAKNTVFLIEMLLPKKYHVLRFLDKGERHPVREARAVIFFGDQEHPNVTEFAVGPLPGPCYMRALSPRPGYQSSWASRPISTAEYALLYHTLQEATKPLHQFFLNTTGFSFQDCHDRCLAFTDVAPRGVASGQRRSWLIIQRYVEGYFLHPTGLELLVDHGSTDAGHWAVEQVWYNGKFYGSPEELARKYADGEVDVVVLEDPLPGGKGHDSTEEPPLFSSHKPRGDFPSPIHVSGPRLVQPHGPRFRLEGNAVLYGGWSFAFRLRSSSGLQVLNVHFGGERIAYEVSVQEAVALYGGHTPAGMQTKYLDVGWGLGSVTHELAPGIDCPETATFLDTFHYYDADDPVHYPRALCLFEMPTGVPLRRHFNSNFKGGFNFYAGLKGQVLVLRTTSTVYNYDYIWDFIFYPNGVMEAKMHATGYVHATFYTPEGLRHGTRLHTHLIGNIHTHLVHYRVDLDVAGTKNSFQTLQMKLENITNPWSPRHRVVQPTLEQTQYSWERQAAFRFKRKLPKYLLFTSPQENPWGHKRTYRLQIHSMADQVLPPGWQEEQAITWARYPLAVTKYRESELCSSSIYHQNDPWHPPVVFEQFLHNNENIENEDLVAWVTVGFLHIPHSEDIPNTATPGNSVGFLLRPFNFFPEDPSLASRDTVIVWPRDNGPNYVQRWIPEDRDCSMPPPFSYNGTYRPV
The assay is described as follows: Activity on recombinant human DAO, Amplex Red method, 1 mM putrescine substrate. As to conditions: recombinant human DAO, read-out: Inhibitory Activity (IC50, nM) DAO. Summed up:
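Inhibition of recombinant human DAO (diamine oxidase, R&D systems) was assessed with the Amplex Red Hydrogen Peroxide Assay Kit. Hydrogen peroxide produced from 1 mM putrescine was detected through an HRP-coupled reaction that converts Amplex Red into fluorescent resorufin, read at 544 nm excitation and 590 nm emission. IC50 values came from four-parameter logistic fits in GraphPad Prism.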

The target of assay [3] is T3, recombinant human MAO-B (monoamine oxidase-B) (Homo sapiens, UniProt P27338).
T3 construct: purchased Sigma-Aldrich
T3 sequence (P27338 1-520): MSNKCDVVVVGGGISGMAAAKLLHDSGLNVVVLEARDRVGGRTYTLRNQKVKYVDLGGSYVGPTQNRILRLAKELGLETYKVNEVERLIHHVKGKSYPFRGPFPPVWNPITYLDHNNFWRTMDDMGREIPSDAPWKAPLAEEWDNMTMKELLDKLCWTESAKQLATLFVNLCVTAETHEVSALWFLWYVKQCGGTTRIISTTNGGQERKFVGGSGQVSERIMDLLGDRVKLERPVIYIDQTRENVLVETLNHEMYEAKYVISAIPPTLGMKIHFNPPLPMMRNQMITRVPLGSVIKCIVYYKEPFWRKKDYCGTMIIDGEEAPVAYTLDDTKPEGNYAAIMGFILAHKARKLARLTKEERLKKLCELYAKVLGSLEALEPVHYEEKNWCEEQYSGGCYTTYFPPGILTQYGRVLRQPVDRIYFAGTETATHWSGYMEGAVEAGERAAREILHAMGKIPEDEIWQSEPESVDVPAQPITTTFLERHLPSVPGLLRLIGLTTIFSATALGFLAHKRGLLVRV
The assay is described as follows: Activity on recombinant human MAO-B, Amplex Red method, 1 mM benzylamine substrate. As to conditions: read-out: Inhibitory Activity (IC50, nM) MAO-B. Summed up: as §1

The next assay has as its target T4, recombinant human VAP-1 (Homo sapiens, UniProt Q16853).
T4 construct: purchased R&D systems
T4 sequence (Q16853 1-763): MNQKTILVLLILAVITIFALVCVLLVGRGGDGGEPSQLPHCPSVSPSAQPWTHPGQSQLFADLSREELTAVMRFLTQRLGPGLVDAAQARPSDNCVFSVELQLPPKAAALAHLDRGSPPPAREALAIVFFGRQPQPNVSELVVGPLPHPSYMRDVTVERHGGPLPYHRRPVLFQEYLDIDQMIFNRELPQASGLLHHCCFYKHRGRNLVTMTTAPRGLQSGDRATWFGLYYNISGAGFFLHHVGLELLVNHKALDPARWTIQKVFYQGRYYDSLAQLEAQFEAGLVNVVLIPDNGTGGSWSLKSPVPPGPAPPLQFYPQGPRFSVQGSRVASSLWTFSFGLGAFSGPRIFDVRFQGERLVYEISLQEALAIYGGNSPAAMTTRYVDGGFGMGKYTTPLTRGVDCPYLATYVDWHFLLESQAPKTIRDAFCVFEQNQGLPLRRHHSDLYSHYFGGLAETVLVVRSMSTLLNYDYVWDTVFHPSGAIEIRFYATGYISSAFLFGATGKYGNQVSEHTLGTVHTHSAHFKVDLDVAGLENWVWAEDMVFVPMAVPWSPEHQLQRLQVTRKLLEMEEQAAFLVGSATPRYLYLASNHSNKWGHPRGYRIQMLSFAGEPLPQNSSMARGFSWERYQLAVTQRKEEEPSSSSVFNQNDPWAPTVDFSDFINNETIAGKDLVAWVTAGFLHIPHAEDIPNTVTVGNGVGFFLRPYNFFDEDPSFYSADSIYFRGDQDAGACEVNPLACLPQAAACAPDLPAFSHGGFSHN
The assay is described as follows: Activity on recombinant human VAP-1, Amplex Red HRP-coupled hydrogen peroxide assay, benzylamine substrate. As to conditions: recombinant human VAP-1, benzylamine substrate, read-out: Inhibitory Activity (IC50, nM) human VAP-1. The essentials: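 Compounds were preincubated with purified enzyme in 50 mM sodium phosphate pH 7.4 at 37 °C for 30 min, then 200 uM Amplex Red, 1 mM benzylamine and 1 U/mL HRP were added. Resorufin fluorescence (ex 544/em 590 nm) was followed over 1-2 h; IC50 came from 4-parameter fits of signal-rate inhibition.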

The mark [4] stands for this setting: 1 mM putrescine, * = between 10 and 100 nM, ** = between 300 and 1000 nM.

Where a name gives a salt, the structure may show the parent alone. Read-outs that look alike come from different tables or passages of the source.

In the case of `NC/C(=C\F)Cn1ncn(-c2ccc(OCc3ccccc3)cc2)c1=O` [Example 8, 2-[(2E)-2-(aminomethyl)-3-fluoroprop-2-en-1-yl]-4-[4-(benzyloxy)phenyl]-2,4-dihydro-3H-1,2,4-triazol-3-one hydrochloride], the IC50 in assay [1] (0.5 mM tyramine) worked out at 54000 nM; in assay [2] (setting [4]), 38 nM; in assay [3] (1 mM benzylamine), 10 nM; at recombinant human VAP-1 (30 min preincubation at 37° C.), 0.6 nM.
On to `NC/C(=C\F)Cn1ncn(-c2cccc(-c3ccc4c(c3)OCO4)c2)c1=O` [Example 93, 2-[(2E)-2-(aminomethyl)-3-fluoroprop-2-en-1-yl]-4-[3-(1,3-benzodioxol-5-yl)phenyl]-2,4-dihydro-3H-1,2,4-triazol-3-one hydrochloride], for which the IC50 in assay [1] (0.5 mM tyramine) is > 10000 nM; in assay [2] (setting [4]), < 100 nM; in assay [3] (1 mM benzylamine) it was 221 nM; on recombinant human VAP-1 (30 min preincubation at 37° C.), 0.48 nM.
With `CC(=O)c1ccc(-c2cccc(-n3cnn(C/C(=C/F)CN)c3=O)c2)s1` [Example 49, 4-[3-(5-acetylthiophen-2-yl)phenyl]-2-[(2E)-2-(aminomethyl)-3-fluoroprop-2-en-1-yl]-2,4-dihydro-3H-1,2,4-triazol-3-one hydrochloride], the IC50 in assay [1] (0.5 mM tyramine) is > 100000 nM; in assay [2] (setting [4]) it was 2.1 nM; in assay [3] (1 mM benzylamine), 800 nM; on recombinant human VAP-1 (30 min preincubation at 37° C.), 0.2 nM.
As to `NC/C(=C\F)Cn1ncn(-c2cccc(/C=C/c3cnc4c(c3)NC(=O)CO4)n2)c1=O` [Example 241, 7-[(E)-2-[6-[1-[(E)-2-(aminomethyl)-3-fluoro-allyl]-5-oxo-1,2,4-triazol-4-yl]-2-pyridyl]vinyl]-1H-pyrido[2,3-b][1,4]oxazin-2-one hydrochloride], the IC50 is > 100000 nM in assay [1] (0.5 mM tyramine substrate), 1 nM in assay [2] (1 mM putrescine substrate), > 10000 nM in assay [3] (1 mM benzylamine substrate) and 0.5 nM on recombinant human VAP-1.
With `NC/C(=C\F)Cn1ncn(-c2cccc(/C=C/c3ccc(C(F)(F)F)cc3)n2)c1=O` [Example 238, 2-[(2E)-2-(aminomethyl)-3-fluoroprop-2-en-1-yl]-4-(6-{(E)-2-[4-(trifluoromethyl)phenyl]ethenyl}pyridin-2-yl)-2,4-dihydro-3H-1,2,4-triazol-3-one Hydrochloride], the half-maximal inhibitory concentration (IC50) in assay [1] (0.5 mM tyramine substrate) came to 34000 nM; in assay [2] (1 mM putrescine substrate), 15 nM; in assay [3] (1 mM benzylamine substrate), 1600 nM; on recombinant human VAP-1, 0.9 nM.
On to `NC/C(=C\F)Cn1ncn(-c2cccc(-c3cccc4[nH]c(=O)ccc34)n2)c1=O` [Example 201, 5-(6-{1-[(2E)-2-(aminomethyl)-3-fluoroprop-2-en-1-yl]-5-oxo-1,5-dihydro-4H-1,2,4-triazol-4-yl}pyridin-2-yl)quinolin-2(1H)-one hydrochloride], for which the IC50 is > 100000 nM in assay [1] (0.5 mM tyramine substrate), 17 nM in assay [2] (1 mM putrescine substrate), > 10000 nM in assay [3] (1 mM benzylamine substrate) and 1.3 nM at recombinant human VAP-1.
With `NC/C(=C\F)Cn1ncn(-c2cccc(-c3ccc(-c4ccc5c(c4)OCO5)cc3)c2)c1=O` [Example 70, 2-[(2E)-2-(aminomethyl)-3-fluoroprop-2-en-1-yl]-4-[4′-(1,3-benzodioxol-5-yl)biphenyl-3-yl]-2,4-dihydro-3H-1,2,4-triazol-3-one hydrochloride], the IC50 was > 100000 nM in assay [1] (0.5 mM tyramine), < 30 nM in assay [2] (setting [4]), 1620 nM in assay [3] (1 mM benzylamine) and 0.63 nM on recombinant human VAP-1 (30 min preincubation at 37° C.).
For the molecule `NC/C(=C\F)Cn1ncn(-c2cc(-c3ccc(N4CCOCC4)nc3)ccn2)c1=O` [Example 169, 2-[(2E)-2-(aminomethyl)-3-fluoroprop-2-en-1-yl]-4-[6-(morpholin-4-yl)-3,4′-bipyridin-2′-yl]-2,4-dihydro-3H-1,2,4-triazol-3-one], the IC50 in assay [1] (0.5 mM tyramine substrate) is > 100000 nM; in assay [2] (1 mM putrescine substrate), < 30 nM; in assay [3] (1 mM benzylamine substrate) it was > 10000 nM; at recombinant human VAP-1, 0.28 nM.
On to `NC/C(=C\F)Cn1ncn(-c2cccc(-c3ccc4sc(N)nc4c3)n2)c1=O` [Example 196, 4-[6-(2-amino-1,3-benzothiazol-5-yl)pyridin-2-yl]-2-[(2E)-2-(aminomethyl)-3-fluoroprop-2-en-1-yl]-2,4-dihydro-3H-1,2,4-triazol-3-one], for which the IC50 in assay [1] (0.5 mM tyramine substrate) is > 100000 nM; in assay [2] (1 mM putrescine substrate), 11 nM; in assay [3] (1 mM benzylamine substrate), > 10000 nM; at recombinant human VAP-1 it was 1.1 nM.
Take `NC/C(=C\F)Cn1ncn(-c2cccc(-c3cccc(-c4ncon4)c3)c2)c1=O` [Example 62, 2-[(2E)-2-(aminomethyl)-3-fluoroprop-2-en-1-yl]-4-[3′-(1,2,4-oxadiazol-3-yl)biphenyl-3-yl]-2,4-dihydro-3H-1,2,4-triazol-3-one]: the IC50 in assay [1] (0.5 mM tyramine) was > 100000 nM; in assay [2] (setting [4]), < 100 nM; in assay [3] (1 mM benzylamine), 117 nM; on recombinant human VAP-1 (30 min preincubation at 37° C.), 0.53 nM.

As a reminder, the IC50 is the point on the concentration scale where inhibition reaches its midpoint.
